This is an account of results in US8129383B2, “Aminopterin dosage forms and methods for inflammatory disorders” (Aminopterin LLC, priority 2005, dated 2012).

For data set [1], the system named is carrageenan-induced inflammation in air pouches. Put plainly: duration of efficacy in the murine air-pouch model after cessation of 4 weeks of dosing. It is filed as in vivo, mice. As to conditions: aminopterin 0.05 mg/kg, methotrexate 1.0 mg/kg. As for the experimental part:
We therefore examined the rate at which anti-inflammatory activity was lost in the air-pouch model after the cessation of 4 weeks of dosing at the maximally efficacious dose (FIG. 2).
On day 25 the air pouches were re-inflated with 1.5 ml of air. Pouches were re-inflated as needed to maintain them.

Data set [2] relates to adjuvant arthritis. As to conditions: cumulative weekly doses of 0.12 mg/kg; cited from earlier work.
Data set [3] concerns influx of neutrophils (PMNs) in hyperoxia. Put plainly: rat oxygen-toxicity model of bronchopulmonary dysplasia. It is filed as in vivo, rats. The following applies: single 0.2 mg/kg ip injection day 2 after birth, 95% oxygen, sacrifice day 8. From the text:
Mason, S, N.; Richard L. Auten, J. Lung inflammation in hyperoxia can be prevented by antichemokine treatment in newborn rats. American Journal of Respiratory Critical Care Medicine 2000, 162, 2316-2323]. […] Litter sizes were the same. […] Dams were rotated daily between air and oxygen cages to avoid maternal oxygen toxicity. On day 8, the pups were weighed and then euthanized, tracheas are cannulated and the pulmonary artery is perfused with saline. Bronchoalveolar lavage fluid (BALF) was then obtained for cell count and chemokine analysis (FIG. 3). The lungs were removed and snap frozen for myeloperoxidase activity assay (neutrophil accumulation within lung parenchyma) and 8-isoprostane, a marker of lipid oxidation. The pulmonary artery was perfused and the lungs were inflation-fixed with buffered formalin at 25 cm H2O.

For data set [4], the system named is formaldehyde arthritis. The following applies: cumulative weekly doses of 0.3 mg/kg; cited from earlier work.
Data set [5] concerns the target T1, partially purified chicken liver DHFR (Gallus gallus, UniProt P00378).
T1 sequence (P00378 1-189): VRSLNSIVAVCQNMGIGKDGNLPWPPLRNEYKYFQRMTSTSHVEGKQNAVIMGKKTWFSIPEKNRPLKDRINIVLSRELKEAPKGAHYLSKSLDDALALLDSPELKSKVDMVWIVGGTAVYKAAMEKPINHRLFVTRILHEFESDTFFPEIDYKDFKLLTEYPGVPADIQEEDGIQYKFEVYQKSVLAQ
Kind of data set: radioligand DHFR binding assay. The method, then: 16:1458, 1998]. […] After the standard curve is established, a portion of the 200 μM supernatant prepared above for an aminopterin tablet is further diluted 10,000 using two serial 100-fold dilutions with water to provide an approximately 20 nM solution of aminopterin. The DHFR assay is performed with 100 μL of the 20 nM solution, as well as several 2-fold serial dilutions, and the result expressed as pmol/ml aminopterin. The total number of pmol of aminopterin is calculated using the relationship, pmol/ml×10,000×11.35. The total number of mg in the tablet is then calculated using the relationship, total pmol×(10^−6 μmole/pmol)×0.44 mg/μmole.

The test system of data set [6] is neutrophils that accumulated in the carrageenan-treated air pouches. As for the experimental part:
J. Clin. Invest., 1993. 92(6):2675-82].
A separate group of 5 animals was given vehicle by ip injection on the same days (0.9% saline, control, n=5). On day 16, air pouches were induced on the animals by injecting 3 ml of air subcutaneously on the back. On day 22 (i.e. one day after the last dose of drug or vehicle), inflammation was induced by injection of 1 ml of a suspension of carrageenan (2% weight/volume in calcium- and magnesium-free PBS). The mice were put back in their cages and allowed to run free for 4 hours. […] After 4 hours, the animals were sacrificed, the pouches flushed with 2 ml of PBS and the exudates harvested. Aliquots were diluted 1:1 with methylene blue (0.01% w/v in PBS), and the cells were counted.

Data set [7] concerns psoriasis. As to conditions: cited from earlier work.
Data set [8] relates to dermal inflammation. The following applies: cumulative weekly doses of 0.35 mg/kg; cited from earlier work.
For data set [9], the system named is antigen-induced arthritis. The following applies: cumulative weekly doses of >1.5 mg/kg; cited from earlier work.

Where two headings read alike, the source gives them in different places.

As to `Nc1nc(N)c2nc(CNc3ccc(C(=O)N[C@@H](CCC(=O)O)C(=O)O)cc3)cnc2n1` [aminopterin, 4-amino-pteroyl-L-glutamic acid], in [1] (8, 12 or 22 days after last of 4 weekly ip doses), the “difference between aminopterin and methotrexate in rate of recovery of inflammation” value is given as “no statistically significant difference”. Besides, the duration of action entry in data set [1] (after last of 4 weekly ip doses) was “quite long”. For the same compound, the efficacy entry in [2], in data set [4], in data set [8] and in data set [9] was “demonstrated the efficacy” throughout. Moreover, the toxicity result in data set [2] was “severe toxicity”; in data set [8], “the animals became severely leucopenic and one subject died”; in data set [9], “severe toxicity”. Further, in [3], the “number of neutrophils in bronchoalveolar lavage fluid” value is given as “statistically significant reduction”. Moreover, the “displacement of 3H-methotrexate and binding to DHFR, aminopterin vs methotrexate” value in [5] is “equivalent”. The “potency relative to methotrexate” value in data set [6] (ratio of EC50s, P<0.001) stood at 43 fold. In addition, in data set [6] (weekly ip doses, aminopterin 0.0005-0.050 mg/kg, methotrexate 0.01-1.00 mg/kg), the “signs of toxicity at the end of the dosing period” value is on record as “no signs of toxicity”. Besides, the “EC50 for diminishing the number of neutrophils accumulated in carrageenan-treated air pouches” value in data set [6] (weekly ip injection days 1, 7, 14, 21, carrageenan day 22, exudate after 4 hours) turned out to be 0.0009 mg/kg/wk. Further, the “frequency of toxic reactions” value in [7] (schedule (i): 1 tablet (0.5 mg) daily for six days) is on record as 0%; in data set [7] (schedule (ii): 1 tablet daily six days, one week rest, 1 tablet daily six days) it was 2.5%; in [7] (schedule (iii): 1 tablet daily for 12 days), 13%; in [7] (schedule (iv): 2 tablets daily for six days) it was 30%.
